Literature values, collected in US20040067887A1, “Human VNO receptor (R1)” (priority 2000, published 2004).

Tests used:
human VNO = conditions: for physiological responses after administration to the human VNO: administered to the human VNO
human brain = conditions: human volunteers; delivered non-specifically to the nasal cavity; no detectable odor (Sobel et al. 1999)

SMILES: C[C@@]12C=CC[C@H]1[C@@H]1CCC3=CC(=O)CC[C@]3(C)[C@H]1CC2 [androsta-4,16-dien-3-one]
- physiological responses after administration to the human VNO (human VNO): induce bradycardia, bradypnea, increases in core body temperature, and other physiological responses

SMILES: CC(=O)Oc1ccc2c(c1)CC[C@@H]1[C@@H]2CC[C@]2(C)C=CC[C@@H]12 [PH15, estra-1,3,5(10),16-tetraen-3yl acetate]
- activation of brain regions detected by fMRI (human brain): dose-dependent activation of the anterior medial thalamus, the inferior frontal gyrus, and other regions of the human brain
- site specificity of physiological responses in vivo (human VNO; human subjects, VNO versus olfactory or respiratory epithelium (Monti-Bloch et al. 1994)): induces physiological responses in vivo only when applied specifically to the VNO

SMILES: C[C@@]12C=CC[C@H]1[C@@H]1CCc3cc(O)ccc3[C@H]1CC2 [estra-1,3,5(10),16-tetraen-3-ol]
- physiological responses after administration to the human VNO (human VNO): induce bradycardia, bradypnea, increases in core body temperature, and other physiological responses
